Seven molecules from patent publication US10015966B2, “Fungicidal pyrazole mixtures” (E I DU PONT DE NEMOURS AND COMPANY, priority 2012, dated 2018) can be followed below.

Marks after values point to notes of the source that are not given here.

Series [1] deals with Blumeria graminis f. sp. tritici. Description: Test I: preventive spray on wheat seedlings, wheat powdery mildew, visual disease rating. The class given is in vivo. As to conditions: 192 h, 200 ppm test suspension. Here is the method:
General protocol for preparing test suspensions for Tests A-I: the test compounds were first dissolved in acetone in an amount equal to 3% of the final volume and then suspended at the desired concentration (in ppm) in acetone and purified water (50/50 mix by volume) containing 250 ppm of the surfactant Trem® 014 (polyhydric alcohol esters). The resulting test suspensions were then used in Tests A-I. Each test was conducted in triplicate, and the results were averaged. Spraying a 200 ppm test suspension to the point of run-off on the test plants was the equivalent of a rate of about 800 g/ha. Unless otherwise indicated, the rating values indicate a 200 ppm test suspension was used. (An asterisk “*” next to the rating value indicates a 40 ppm test suspension was used.) The test suspension was sprayed to the point of run-off on wheat seedlings. The following day the seedlings were inoculated with a spore dust of Blumeria graminis f. sp. tritici (also known as Erysiphe graminis f. sp. tritici, the causal agent of wheat powdery mildew) and incubated in a growth chamber at 20° C. for 8 days, after which time visual disease ratings were made. Results for Tests A-I are given in Table A. In the Table, a rating of 100 indicates 100% disease control and a rating of 0 indicates no disease control (relative to the controls). A hyphen (-) indicates no test results.

A further series has as its system Septoria tritici. Description: Test F: preventive spray on wheat seedlings, wheat leaf blotch, visual disease rating. Format: in vivo. The note with it: Zymoseptoria tritici, 200 ppm test suspension. Here is the method: General protocol for preparing test suspensions for Tests A-I: the test compounds were first dissolved in acetone in an amount equal to 3% of the final volume and then suspended at the desired concentration (in ppm) in acetone and purified water (50/50 mix by volume) containing 250 ppm of the surfactant Trem® 014 (polyhydric alcohol esters). The resulting test suspensions were then used in Tests A-I. Each test was conducted in triplicate, and the results were averaged. Spraying a 200 ppm test suspension to the point of run-off on the test plants was the equivalent of a rate of about 800 g/ha. Unless otherwise indicated, the rating values indicate a 200 ppm test suspension was used. (An asterisk “*” next to the rating value indicates a 40 ppm test suspension was used.) The test suspension was sprayed to the point of run-off on wheat seedlings. The following day the seedlings were inoculated with a spore suspension of Septoria tritici (the causal agent of wheat leaf blotch) and incubated in saturated atmosphere at 24° C. for 48 h. and then the seedlings were moved to a growth chamber at 20° C. for 19 additional days, after which time visual disease ratings were made. Results for Tests A-I are given in Table A. In the Table, a rating of 100 indicates 100% disease control and a rating of 0 indicates no disease control (relative to the controls). A hyphen (-) indicates no test results.

The test system of series [2] is Puccinia recondita f. sp. tritici. The series is described as follows: Test H: preventive spray on wheat seedlings, wheat leaf rust, visual disease rating. Format: in vivo. The note with it: 200 ppm test suspension. On the procedure: General protocol for preparing test suspensions for Tests A-I: the test compounds were first dissolved in acetone in an amount equal to 3% of the final volume and then suspended at the desired concentration (in ppm) in acetone and purified water (50/50 mix by volume) containing 250 ppm of the surfactant Trem® 014 (polyhydric alcohol esters). The resulting test suspensions were then used in Tests A-I. Each test was conducted in triplicate, and the results were averaged. Spraying a 200 ppm test suspension to the point of run-off on the test plants was the equivalent of a rate of about 800 g/ha. Unless otherwise indicated, the rating values indicate a 200 ppm test suspension was used. (An asterisk “*” next to the rating value indicates a 40 ppm test suspension was used.) The test suspension was sprayed to the point of run-off on wheat seedlings. The following day the seedlings were inoculated with a spore suspension of Puccinia recondita f. sp. tritici (the causal agent of wheat leaf rust) and incubated in a saturated atmosphere at 20° C. for 24 h, and then moved to a growth chamber at 20° C. for 6 days, after which time visual disease ratings were made. Results for Tests A-I are given in Table A. In the Table, a rating of 100 indicates 100% disease control and a rating of 0 indicates no disease control (relative to the controls). A hyphen (-) indicates no test results.

Series [3] in a line: Single oral dose pharmacokinetics in rats, plasma and fat analysed by LC/MS (fat:plasma ratio). The class given is in vivo. As to conditions: single dose via oral gavage, compared to corresponding compounds with a nonhydrogen substituent at the para position of the phenyl ring connected to R^1 and R^2. Here is the method:
The pharmacokinetic properties of compounds of Formula 1 can be measured using a wide variety of assay protocols known in the science of pharmacology. In one illustrative method involving a single oral dose, three male and three female rats receive a single dose of a test substance via oral gavage. Approximately 0.25 mL of blood is collected via tail vein immediately prior to dosing, and then at 0.25, 0.5, 1, 2, 4, 8, 12, 24 h and every 24 h thereafter until sacrifice. At sacrifice, fat is also collected to determine the fat:plasma ratio at sacrifice. Blood is collected into tubes that contain ethylenediaminetetracetic acid (EDTA) and centrifuged at 2500×g in order to separate plasma from blood cells. The plasma is then extracted by protein precipitation using, for example, acetonitrile and a protein precipitation plate (e.g., Strata Impact Protein Precipitation Plate, part number CEO-7565 of Phenomenex, Torrance, Calif., U.S.A.) following directions provided for the plate. Alternatively, the plasma is extracted just with acetonitrile, vortexed (i.e. mixed using a vortex mixer), and centrifuged to pellet the proteins. After removal of the proteins, the plasma is analyzed for parent compound and/or metabolites by liquid chromatography-mass spectrometry (LC/MS). The fat is homogenized and extracted by an organic solvent such as acetonitrile. The extract is then analyzed for parent compound and/or metabolites by LC/MS. The plasma pharmacokinetic data is then analyzed using nonlinear modeling software (e.g., WinNonlin™ from Pharsight, Cary, N.C., U.S.A.) to determine half-life of the administered compound in plasma, the time after administration when the maximum plasma concentration is reached (Tmax), the maximum plasma concentration (Cmax) and the area under the plasma concentration curve (AUC). As analysis of fat requires rat sacrifice, fat data is obtained at single time points (i.e. the time of rat sacrifice). However, by using multiple rats sacrificed after different intervals from time of dosing, such parameters as Cmax for fat are determined.

The subject of the next series is Botrytis cinerea. The series is described as follows: Test A: preventive spray on tomato seedlings, tomato Botrytis, visual disease rating. Format: in vivo. As to conditions: 200 ppm test suspension. On the procedure: General protocol for preparing test suspensions for Tests A-I: the test compounds were first dissolved in acetone in an amount equal to 3% of the final volume and then suspended at the desired concentration (in ppm) in acetone and purified water (50/50 mix by volume) containing 250 ppm of the surfactant Trem® 014 (polyhydric alcohol esters). The resulting test suspensions were then used in Tests A-I. Each test was conducted in triplicate, and the results were averaged. Spraying a 200 ppm test suspension to the point of run-off on the test plants was the equivalent of a rate of about 800 g/ha. Unless otherwise indicated, the rating values indicate a 200 ppm test suspension was used. (An asterisk “*” next to the rating value indicates a 40 ppm test suspension was used.) The test suspension was sprayed to the point of run-off on tomato seedlings. The following day the seedlings were inoculated with a spore suspension of Botrytis cinerea (the causal agent of tomato Botrytis) and incubated in saturated atmosphere at 20° C. for 48 h, and then moved to a growth chamber at 24° C. for 3 additional days, after which time visual disease ratings were made. Results for Tests A-I are given in Table A. In the Table, a rating of 100 indicates 100% disease control and a rating of 0 indicates no disease control (relative to the controls). A hyphen (-) indicates no test results.

For another series, the system named is Septoria nodorum. Description: Test E: preventive spray on wheat seedlings, Septoria glume blotch, visual disease rating. As to conditions: asterisked rating: test suspension other than 200 ppm. Format: in vivo. On the procedure:
General protocol for preparing test suspensions for Tests A-I: the test compounds were first dissolved in acetone in an amount equal to 3% of the final volume and then suspended at the desired concentration (in ppm) in acetone and purified water (50/50 mix by volume) containing 250 ppm of the surfactant Trem® 014 (polyhydric alcohol esters). The resulting test suspensions were then used in Tests A-I. Each test was conducted in triplicate, and the results were averaged. Spraying a 200 ppm test suspension to the point of run-off on the test plants was the equivalent of a rate of about 800 g/ha. Unless otherwise indicated, the rating values indicate a 200 ppm test suspension was used. (An asterisk “*” next to the rating value indicates a 40 ppm test suspension was used.) The test suspension was sprayed to the point of run-off on wheat seedlings. The following day the seedlings were inoculated with a spore suspension of Septoria nodorum (the causal agent of Septoria glume blotch) and incubated in a saturated atmosphere at 24° C. for 48 h, and then moved to a growth chamber at 20° C. for 9 days, after which time visual disease ratings were made. Results for Tests A-I are given in Table A. In the Table, a rating of 100 indicates 100% disease control and a rating of 0 indicates no disease control (relative to the controls). A hyphen (-) indicates no test results.

For the molecule `Cc1nn(C)c(Nc2c(F)cccc2Cl)c1-c1ccc(F)cc1Br` [Compound 4, 4-(2-bromo-4-fluorophenyl)-N-(2-chloro-6-fluorophenyl)-1,3-dimethyl-1H-pyrazol-5-amine], the pest or weed control at 200 ppm (in series [1]; with Septoria tritici; in series [2]; with Botrytis cinerea) was 100% throughout. For the same molecule, in series [3], the distribution into fat entry is “significantly diminished distribution into fat”.

`Cc1nn(C)c(Nc2c(F)cccc2Br)c1-c1ccc(F)cc1Cl` [Compound 5, N-(2-bromo-6-fluorophenyl)-4-(2-chloro-4-fluorophenyl)-1,3-dimethyl-1H-pyrazol-5-amine]: the pest or weed control at 200 ppm (in series [1]; in the series on Septoria tritici; in series [2]; with Botrytis cinerea) was 100% each time. Also, the distribution into fat result in series [3] is reported as “significantly diminished distribution into fat”.

In turn, `Cc1nn(C)c(Nc2c(F)cccc2Br)c1-c1ccc(F)cc1Br` [Compound 7, 4-(2-bromo-4-fluorophenyl)-N-(2-bromo-6-fluorophenyl)-1,3-dimethyl-1H-pyrazol-5-amine] came in with a melting point of 154 to 156 °C. Further, in series [1], the pest or weed control at 200 ppm came out at 100%. The pest or weed control at 200 ppm in the series with Septoria tritici was found to be 100%. The molecule further displayed a pest or weed control at 200 ppm in series [2] of 100%. This molecule had a pest or weed control at 200 ppm with Botrytis cinerea of 100%.

In the case of `Cc1nn(C)c(Nc2ccccc2Cl)c1-c1ccc(F)cc1Br` [Compound 8, 4-(2-bromo-4-fluorophenyl)-N-(2-chlorophenyl)-1,3-dimethyl-1H-pyrazol-5-amine], the pest or weed control at 200 ppm in series [1] came to 100%; in the series on Septoria tritici, 100%; in series [2] it was 99%; in the series with Botrytis cinerea it was 100%.

Take `Cc1nn(C)c(Nc2ccccc2Br)c1-c1ccc(F)cc1Cl` [Compound 9, N-(2-bromophenyl)-4-(2-chloro-4-fluorophenyl)-1,3-dimethyl-1H-pyrazol-5-amine]: in the series with Septoria nodorum, the “Test E rating (% disease control)” value is reported as 0* %.

On to `Cc1nn(C)c(Nc2ccccc2Cl)c1-c1ccc(F)cc1Cl` [Compound 10, 4-(2-chloro-4-fluorophenyl)-N-(2-chlorophenyl)-1,3-dimethyl-1H-pyrazol-5-amine], for which, in the series with Septoria nodorum, the “Test E rating (% disease control)” value is 0* %.

Turning to `Cc1nn(C)c(Nc2c(F)cccc2F)c1-c1ccc(F)cc1Br` [Compound 11, 4-(2-bromo-4-fluorophenyl)-N-(2,6-difluorophenyl)-1,3-dimethyl-1H-pyrazol-5-amine], the “Test E rating (% disease control)” value with Septoria nodorum is 60* %.

The term pest or weed control denotes the degree to which the test organism was suppressed or injured, in per cent. Low values mean a weak effect, high ones a strong effect. The term melting point denotes the temperature, or range, at which the solid turns liquid.
